Data set [1] concerns Trypanosoma cruzi. In words: Assay 6 Trypanosoma cruzi intracellular assay (infected H9C2 cells). It counts as cell-based. Particulars: H9c2, in Rattus norvegicus, 72 h, infected H9C2 rat cardiomyocytes, read-out: pEC50 value against Trypanosoma cruzi (converted). How it is done:
Compounds were dispensed into black 384-well assay plates (Greiner) by acoustic dispensing (LabCyte ECHO). For potency determinations, eleven-point, one in three dilution curves were generated, with a top concentration of 50 μM. H9C2 rat cardiomyocytes cells were dispensed in T225 tissue culture flasks and after 4 hours they were infected during 18 hours with T. cruzi trypomastigotes in the same T225 tissue culture flasks at a multiplicity of infection of 1. Next, any remaining free trypomastigotes were washed away with PBS and the infected H9C2 cells were harvested by trypsinisation. The infected H9C2 cells were then plated into 384-well plates containing the compounds to be tested, at 2500 cells per well in DMEM media with 2% FBS, 1% Penicillin/Streptomocin, 2 mM L-Glutamine, 1 mM Na Pyruvate and 25 mM HEPES. After 72 h incubation at 37° C. in presence of 5% CO2, the plates were fixed and stained with 4% formaldehyde and 2 μM Draq5 for 3 hours at room temperature. The plates were imaged on a Perkin Elmer Opera high-content imaging system using a 20× air objective. Images were analysed using the Acapella building blocks system (Perkin Elmer). The image analysis algorithm first identified the H9C2 nuclei followed by demarcation of the cytoplasm and identification of intracellular amastigotes. This algorithm reported mean number of parasites per H9C2 cell, the percentage of infected H9C2 cells and the total number of H9C2 cells.

Data set [2] in a line: Assay 4 solubility assay, ChemiLuminescent Nitrogen Detection (CLND). The data set is classed as physicochemical. The settings on record: phosphate buffered saline, pH 7.4, aqueous buffer, kinetic from dmso stock, pH 7.4 PBS, from 10 mM DMSO stock, 1 h at room temperature. How it is done: A 10 mM DMSO stock solution of the compound was prepared. Solvents and Buffers Organic solvents of HPLC grade were used. Ultra pure water (Milli-Q grade) was used. Buffers were prepared with ultra pure water and filtered using 0.45μ cameo filters. Aqueous Buffer Solution: Phosphate Buffer Saline (PBS) @ pH 7.4 was prepared from Sigma dry powder packs, P-3813. Each one was diluted to 1 liter with deionised water. The pH was checked before the solution was used II. Procedures. • a) DMSO concentration was measured. DMSO blanks and ondansetron and caffeine standards were added to the plate (column 12, A, B, C, & D for the blanks and E, F, G, & H for the standards). Plates were covered with foil. When the UV and CLND detectors baselines appeared to be stable, the CLND was zeroed. • b) Once DMSO concentration measurements were complete, a filtration plate was prepared from each parent plate by diluting 5 μl of the 10 mM DMSO stock solution to […] with pH7.4 PBS. • c) After the plates were prepared, they were covered with a plate lid and left to incubate for 1 h at room temperature. • d) Sample was filtered using MILLIPORE MultiScreen Solubility (MSSLBPC10) Filtration Plates, to NUNC V well plates. The filter plate was removed and the NUNC plate was sealed with a power seal plate seal. • e) HPLC/CLND instruments were set up and left to equilibrate. Mobile phases (MeOH:H2O 1:1, flow rate: 0.2 ml/min, sensitivity z10, Gain High). The samples were run. • f) The assay curve fit was done by linear regression and solubility values were reported in μM.

Data set [3] is described as follows: Assay 5 Leishmania donovani intracellular assay, cytotoxicity against THP-1 cells. It counts as cell-based. The settings on record: human, total number of THP-1 cells, minimum threshold 4.3, read-out: cytotoxicity against THP-1 cells, pEC50 value (converted). How it is done:
Compounds were dispensed into black 384-well assay plates (Greiner) by acoustic dispensing (LabCyte ECHO). For potency determinations, eleven-point, one in three dilution curves were generated, with a top concentration of 50 μM. THP-1 human monocytes cells were dispensed in T225 tissue culture flasks and differentiated using 30 nM of PMA, after 24 hours they were infected overnight using Leishmania donovani expressing Green Fluorescent Protein (eGFP) amastigotes in the same T225 tissue culture flasks at a multiplicity of infection of 10. Next, any remaining free amastigotes were washed away with PBS and the infected THP-1 cells were harvested by trypsinisation. The infected cells were then plated into 384-well plates containing the compounds to be tested, at 3000 cells per well in RPMI media with 2% FBS and 25 mM Sodium bicarbonate. After 96 h incubation at 37° C. in presence of 5% CO2, the plates were fixed with 4% formaldehyde for 30 minutes, washed with PBS and stained with 0.1 mg/mL of DAPI for 30 minutes and washed again with PBS. The plates were imaged on a Perkin Elmer Opera high-content imaging system using a 20× air objective with two expositions, one for DAPI stain and other for eGFP. Images were analysed using the Acapella building blocks system (Perkin Elmer). The image analysis algorithm first identified the THP-1 nuclei followed by demarcation of the cytoplasm and identification of intracellular amastigotes. This algorithm reported mean number of parasites per THP-1 cell, the percentage of infected THP-1 cells and the total number of THP-1 cells.

The test system of data set [4] is Trypanosoma cruzi. Briefly: Assay 2 Trypanosoma cruzi intracellular assay (infected Vero cells). It counts as cell-based. Particulars: 72 h, read-out: pEC50 value against Trypanosoma cruzi (converted). How it is done: Compounds were dispensed into black 384-well assay plates (Corning) by acoustic dispensing (LabCyte ECHO). For potency determinations, ten-point one in three dilution curves were generated, with a top concentration of 50 μM. Vero cells were infected overnight with T. cruzi trypomastigotes in T225 tissue culture flasks at a multiplicity of infection of 5. Next, any remaining free trypomastigotes were washed away with serum free MEM media and the infected Vero cells were harvested by trypsinisation. The infected Vero cells were then plated into 384-well plates containing the compounds to be tested, at 4000 cells per well in MEM media with 1% FCS. After 72 h incubation at 37° C. in presence of 5% CO2, the plates were fixed with 4% formaldehyde for 20 minutes at room temperature and stained with 5 μg/ml Hoechst 33342. The plates were imaged on a Perkin Elmer Operetta high-content imaging system using a 20× objective. Images were analysed using the Columbus system (Perkin Elmer). The image analysis algorithm first identified the Vero nuclei followed by demarcation of the cytoplasm and identification of intracellular amastigotes. This algorithm reported mean number of parasites per Vero cell and total number of Vero cells.

In another data set the test system is Leishmania donovani. In words: Assay 1 intramacrophage Leishmania donovani assay (potency readout). It counts as cell-based. Particulars: amastigotes in PMA-treated THP-1 macrophages, 96 h, average number of amastigotes per cell, minimum threshold 4.3, read-out: pEC50 value against Leishmania donovani (converted). How it is done: The intramacrophage Leishmania assay was performed using a modified version of the method described in De Rycker et al. (Antimicrob Agents Chemother. 2013 July; 57(7):2913-22. Comparison of a high-throughput high-content intracellular Leishmania donovani assay with an axenic amastigote assay. De Rycker M, Hallyburton I, Thomas J, Campbell L, Wyllie S, Joshi D, Cameron S, Gilbert I H, Wyatt P G, Frearson J A, Fairlamb A H, Gray D W.). Procedure: 350 nl of compound was pre-dispensed into 384 well sterile intermediary plates. For single point screening, amphotericin B was added to all wells of column 24 as a positive control (final concentration 2 μM) and DMSO to column 23. For potency determinations, ten-point, one in three dilution curves were created with the highest concentration being 50 μM and on each plate a control curve of amphotericin B was included. Controls were as follows: columns 11 and 12: DMSO, columns 23 and 24: amphotericin B (final concentration 2 μM). To the intermediary plates, 35 μl of THP-1 media was added and plates were shaken for >5 min to ensure complete mixing. THP-1 cells (8,000 per well, 50 μl) were plated into black clear-bottom 384 well plates (Corning) in presence of 20 nM PMA. After 20 min at RT, the plates were incubated at 37° C. under 5% CO2 in a humidified incubator for 75 h. The cells were then washed with […] sterile phosphate buffered saline (PBS) supplemented with 1 mM CaCl2, 0.5 mM MgCl2, 0.1% (w/v) bovine serum albumin (PBS-A) and amastigotes were added to all wells at a multiplicity of infection of 5 (40,000 amastigotes per well). After 40 min at RT, plates were returned to the incubator. Amastigotes were incubated in the presence of THP-1 macrophages for 16 h. Any remaining extracellular amastigotes were subsequently removed with an overflow wash of 1 mL PBS-A per well (wash buffer is being aspirated from the top of the well as it is being dispensed) followed by addition of 25 μl of the compound pre-dilutions using a Fluidx Ipette-pro pipetting station. The final dilution of each compound was 200-fold. Plates were incubated for 96 h and then washed (250 μl PBS-A) and fixed (4% (v/v) formaldehyde-PBS, 30 min, RT). After fixation, the wells were washed with 250 μl PBS, stained (10 μg/mL DAPI, 0.4 μg mL-1 HCS Cellmask Deep Red in PBS+0.1% (v/v) Triton X-100, 30 min, RT) and washed with 250 μl PBS. Finally, PBS+0.05% (v/v) thimerosal was added to the wells, the plates were sealed and imaged on a high-content microscope (GE IN Cell 2000) using a 10× objective. Image analysis was carried out with GE IN Cell Analyzer 1000 Workstation using the “Multi Target Analysis” module. Settings for segmentation were as follows: nuclei: minimum area: 142.384 μm2, sensitivity: 81, method: top-hat; cells: characteristic area: 2500 μm2, sensitivity: 60, method: multiscale top-hat; organelles (amastigotes): granule size 1-3, 3 scales, sensitivity: 90, detection in entire cell. For each well, i) THP-1 cell count (cytotoxicity readout) and ii) average number of amastigotes per cell (potency readout) were calculated, both in terms of pEC50 values.

Molecules are shown by their SMILES. Values after ≈ are worked out from the molar mass of the structure shown. A value given as a limit tells only on which side of the number the result lay.

For orientation: solubility means how much of the substance goes into solution per volume. Lower therefore signals little dissolved substance. Turning to `CNCc1cccc(-c2cnc3nc(-c4cc(NC(=O)N5CCCC5)ccc4F)cn3n2)c1` [Example 44, N-(4-fluoro-3-(2-(3-((methylamino)methyl)phenyl)imidazo[1,2-b] [1,2,4]triazin-6-yl)phenyl) pyrrolidine-1-carboxamide], in the data set on Trypanosoma cruzi [1], the EC50 is 5.01 to 631 nM. In data set [2], this compound displayed a solubility at 1 h of 100 to 416 µM (≈ 44.6 to 185 µg/mL). The EC50 at 96 h in data set [3] was 2510 to 10000 nM.
In the same order, the values of `CC(C)OC(=O)Nc1ccc(F)c(-c2cn3nc(N4CCOCC4)cnc3n2)c1` [Example 48, isopropyl (4-fluoro-3-(2-morpholinoimidazo[1,2-b] [1,2,4]triazin-6-yl)phenyl)carbamate] are 5.01 to 631 nM, 10 to 83 µM (≈ 4 to 33.2 µg/mL) and 2510 to 10000 nM.
The corresponding values for `CN(C)Cc1ccc(-c2cnc3nc(-c4cc(NC(=O)N5CCCC5)ccc4F)cn3n2)cc1` [Example 37, N-(3-(2-(4-((dimethyl-amino)methyl)phenyl)imidazo[1,2-b][1,2,4]triazin-6-yl)-4-fluoro-phenyl)pyrrolidine-1-carboxamide] are 5.01 to 631 nM, 10 to 83 µM (≈ 4.6 to 38.1 µg/mL) and 2510 to 10000 nM.
With `O=C(Nc1ccc(F)c(-c2cn3nc(-c4ccccc4)cnc3n2)c1)N1CCCC1` [Example 2, N-(4-fluoro-3-(2-phenylimidazo[1,2-b][1,2,4]triazin-6-yl)phenyl)pyrrolidine-1-carboxamide], the EC50 in the data set with Trypanosoma cruzi [1] was 5.01 to 631 nM; in the data set with Trypanosoma cruzi [4], 20 to 251 nM. Further, the solubility at 1 h in data set [2] was 10 to 83 µM (≈ 4.02 to 33.4 µg/mL).
In the same order, the values of `O=C(Nc1ccc(F)c(-c2cn3nc(N4CCCC4)cnc3n2)c1)N1CCCC1` [Example 3, N-(4-fluoro-3-(2-(pyrrolidin-1-yl)imidazo[1,2-b][1,2,4]triazin-6-yl)phenyl)pyrrolidine-1-carboxamide] are 5.01 to 631 nM, 20 to 251 nM and 10 to 83 µM (≈ 3.95 to 32.8 µg/mL).
Take `CC1CN(c2cnc3nc(-c4cc(NC(=O)N5CCCC5)ccc4F)cn3n2)CCO1` (racemic) [Example 5, (+,−)-N-(4-fluoro-3-(2-(2-methylmorpholino)imidazo[1,2-b][1,2,4]triazin-6-yl)phenyl)pyrrolidine-1-carboxamide]: the results for the EC50 in the data set with Trypanosoma cruzi [1] and in the data set with Trypanosoma cruzi [4] were 5.01 to 631 nM and 20 to 251 nM, respectively. In addition, the solubility at 1 h in data set [2] lay within 10 to 83 µM (≈ 4.25 to 35.3 µg/mL).
In the case of `CN(C)Cc1cccc(-c2cnc3nc(-c4cc(NC(=O)N5CCCC5)ccc4F)cn3n2)c1` [Example 41, N-(3-(2-(3-((dimethyl-amino)methyl)phenyl)imidazo[1,2-b][1,2,4]triazin-6-yl)-4-fluorophenyl)pyrrolidine-1-carboxamide], the EC50 in the data set on Trypanosoma cruzi [1] was 5.01 to 631 nM. In addition, in data set [2], the solubility at 1 h fell in the range of 100 to 416 µM (≈ 46 to 191 µg/mL). Besides, the EC50 at 96 h in data set [3] was 2510 to 10000 nM.
Consider `Cc1nn(C)cc1S(=O)(=O)Nc1ccc(F)c(-c2cn3nc(N4CCOCC4)cnc3n2)c1` [Example 34, N-(4-fluoro-3-(2-morpholinoimidazo [1,2-b][1,2,4]triazin-6-yl)phenyl)-1,3-dimethyl-1H-pyrazole-4-sulfonamide], for which the results for the EC50 with Trypanosoma cruzi [1], with Leishmania donovani and in the data set with Trypanosoma cruzi [4] were 10000 to 39800 nM, > 50100 nM and 25100 nM, respectively.
Consider `O=C(Nc1ccc(F)c(-c2cn3nc(N4CCCCC4)cnc3n2)c1)N1CCCC1` [Example 4, N-(4-fluoro-3-(2-(piperidin-1-yl)imidazo[1,2-b][1,2,4]triazin-6-yl)phenyl)pyrrolidine-1-carboxamide], for which the EC50 with Trypanosoma cruzi [1] is 5.01 to 631 nM; in the data set on Trypanosoma cruzi [4], 20 to 251 nM. Further, the solubility at 1 h in data set [2] lay within 10 to 83 µM (≈ 4.09 to 34 µg/mL).

For the origin of these results see US10065965B2, “Imidazo[1,2-B][1,2,4]triazine derivatives as antiparasitic agents” (GlaxoSmithKline Intellectual Property Development Limited, priority 2015, dated 2018).
